Here are results for 92 compounds from a melting point compilation (Tetko et al.; mined from patent text by program, amines drawn as free bases though some values may be those of a salt).

The melting point is the temperature, or range, at which the solid turns liquid. In turn, `CCN(CCNS(C)(=O)=O)c1ccc(NC(C)=O)c(C)c1` registered a melting point of 104 to 105 °C.
With `CCCCCCCCCCNC(=O)C=C(c1ccccc1)c1ccc(N)cc1`, the melting point was 90 to 100 °C.
Next, `O=C1N=CC(OCC2CCC2)(C(F)(F)F)c2cc(F)ccc2N1` (configuration not stated): 190 to 191 °C; `CC(=O)Nc1ccc(/C=C/C(=O)NC/C=C(/C)c2ccc(C)c(CO)c2C)cn1`: 160 to 165 °C.
With `CC1(C)CC(C)(C)CC(CCC(=O)O)(NC(=O)CCl)C1` the figure was 130 to 131 °C; with `CCOC(=O)c1cc2c(=O)c3cc(C(C)=O)ccc3oc2nc1N`, > 300 °C.
For `CCC(=CC(CNC(=O)c1cnccn1)=NO)C(C)[N+](=O)[O-]` (configuration not stated), the melting point was in the range of 120 to 121 °C.
Next, `CN1C(=O)N(CC(COc2ccc(-c3ccc(C#N)cc3)cc2)N(O)C=O)C(=O)C1(C)C` (configuration not stated): 65 to 67 °C; `O=c1c2c([nH]n1-c1ccc(Br)cc1)-c1cc(Cl)ccc1SC2`: 257 to 260 °C.
With `CC(C)c1cccc(OCc2cc(Br)ccc2C(=O)O)c1` the figure was 103 to 122 °C.
The compound `NCc1ccc2c(c1)C(=O)c1ccccc1C2=O` gave a melting point of 170 to 178 °C.
Next, `CCOC(=O)c1ccc(/C=C/c2ccc3c(c2)C(C)(C)CC3(C)C)cc1`: 151 to 152 °C; `CSc1nc(C)ccc1NC(=O)CCCCCSc1nc2ccccc2o1`: 140 to 141 °C; `CC(c1oc2ccccc2c(=O)c1-c1cccc(F)c1)n1nc(-c2ccc(Cl)c(O)c2)c2c(N)ncnc21` (configuration not stated): 134 to 136 °C.
The compound `CCCc1c(OCCCCCC(=O)c2cc(O)c(O)c(C(C)C)c2)ccc(C(=O)O)c1O` displayed a melting point of 169 to 171 °C.
With `CCc1nc2c(OCc3ccccc3)cc(Br)cc2n1C` the figure was 111 to 115 °C; with `Cn1nnnc1-c1cn(C)c2cc(Cl)c(F)cc2c1=O`, 264 to 267 °C.
Next, `O=C(NCc1cccc(Cl)c1)c1sc2ccc(Cl)cc2c1O`: 184 to 186 °C; `CCC1C(C)=NN=C(c2ccc(O)c(O)c2)c2cc(OC)c(O)cc21` (configuration not stated): 254 to 255 °C; `COc1ccc(C2C3=C(COC3=O)Nc3ccc4cn[nH]c4c32)cc1[N+](=O)[O-]` (configuration not stated): 217 to 218 °C.
In the case of `COCc1ccc(C(=O)N[C@H](Cc2ccc(C(F)(F)F)cc2)[C@@H](O)c2ccc(F)cc2)c2ccccc12` (racemic), the melting point was in the range of 170 to 171 °C.
Compound `COC(=O)c1ccc(-c2cc(C(=O)NC3CC3)cc(F)c2C)c(C(=O)O)c1` returned a melting point of 217 to 222 °C.
With `N#Cc1cc(NC(=O)c2ccn(-c3ccc(Cl)cc3)c2)ccc1N1CCN(CCO)CC1` the figure was 196 °C; with `CN1CCN(Cc2ccccc2Cl)C(C2=NCCO2)C1` (configuration not stated), 96.8 °C.
Compound `O=C1N(Cc2ccc(Cl)c(Cl)c2)C(=NCC(F)(F)F)SCN1c1ccccc1` yielded a melting point of 99.1 to 99.6 °C.
`Cc1cc(C#N)cn2cc(-c3ccc(-c4ccc(C#N)cc4)o3)nc12` came in with a melting point of 276 to 277 °C.
The compound `COC(=O)c1cnc(S)n1C1CCSc2ccccc21` (configuration not stated) displayed a melting point of 163 °C.
Next, `CSc1cc2c(cc1C(F)(F)F)N(C(=O)Nc1ccc(C(=O)Nc3ccncc3)cc1)CC2`: 158 to 160 °C.
Next, `COc1cc(NOC(C)=O)c(Cl)c(OC)c1`: 117 to 118 °C.
Next, `CCCNS(=O)(=O)Nc1ncccc1C(=O)OC`: 208 to 210 °C; `CCCCCCCCCCCCC#CC#CCn1c2ccccc2c2ccccc21`: 53 to 58 °C; `CCCCCCC(Oc1c(Br)cc(-c2ccc(-c3c(Cc4ccccc4)oc4ccccc34)cc2)cc1Br)C(=O)O` (configuration not stated): 72 to 74 °C.
`CCCCCCCCCC(=O)Oc1ccc2cc(C(=N)N)ccc2c1`: the melting point lay in the range of 165 to 168 °C.
In the case of `CS(=O)(=O)c1ccc(-c2cc(C(=O)CO[N+](=O)[O-])nn2-c2ccccn2)cc1`, the melting point was 82 to 84 °C.
With `Nc1nc2c(c(=O)[nH]1)n(CC(=O)O)c(=O)n2C1OC(CO)C(O)C1O` (configuration not stated) the figure was > 230 °C.
With `Cc1cc(C)n(C(=N)NC(=S)Nc2cccnc2)n1` the figure was 132 °C; with `O=c1c2cc(O)ccc2oc2cccc(NCCN3CCCC3)c12`, 192 to 194 °C; with `COC(=O)c1c(C(F)F)nc(C(F)(F)F)c(C(=O)OC)c1CI`, 78 to 79 °C.
With `CC(=NN(C)c1ccc(C(F)(F)F)cc1)C(=O)NCc1ccc(Cl)nc1` the figure was 141 to 142 °C.
For `Cc1oc(-c2ccccc2)nc1COc1cccc(CON)c1`, the melting point was 81 to 82 °C.
Compound `CCCOc1ccc(CC(=O)NCC(=O)OC)cc1Cl` had a melting point of 76 to 80 °C.
On to `CCOC(=O)Oc1cc2occ(C(=O)Cl)c(=O)c2cc1OC(=O)OCC`, for which the melting point lay within 89 to 92 °C.
Next, `CCCCCc1nc2ccc(C(=O)O)cc2c(=O)o1`: 185 to 190 °C; `O=Cc1ccc(OCc2ccc3ccccc3c2)cc1`: 103 to 109 °C; `CC(=O)C(=O)N1CCC[C@H]1C(=O)O`: 88 to 89 °C.
With `Oc1ccc2c(c1)CC(n1cc[nH]c1=S)CC2` (configuration not stated) the figure was 248 to 250 °C; with `Cc1cc2oc(C(=O)O)cc(=O)c2c2c1-c1ccccc1C(C)(C)O2`, 231 to 232 °C.
Regarding `Clc1ccc(-c2ccccc2OCC2CO2)nn1` (configuration not stated), the melting point was in the range of 118 to 119 °C.
Next, `O=S(=O)(c1ccc(Cl)cc1)C1(c2nnnn2Cc2ccccc2)CCCCC1`: 154 to 155 °C; `O=[N+]([O-])c1cccc(C#Cc2c(F)c(F)nc(F)c2F)c1`: 130 to 131 °C; `CN1CCN(c2cc(N)ccc2F)CC1`: 155 to 156 °C.
With `N#Cc1nc(-c2cnn(-c3c(Cl)cc(C(F)(F)F)cc3Cl)n2)[nH]c1C#N` the figure was 192 to 194 °C.
The compound `CCOC(=O)c1ccc(OCC(=NO)c2ccc3c(c2)C(C)(C)CCC3(C)C)cc1O` registered a melting point of 130 °C.
Regarding `CC1(C)C2CC[C@]1(CS(=O)(=O)NCCNCC1COc3ccccc3O1)C(=O)C2` (some centres not stated), the melting point was 143 to 146 °C.
For `FC(F)(F)c1ccc(-c2ccc3[nH]c4c(ccc5cc[nH]c54)c3c2)cc1`, the melting point was > 250 °C.
`CCOC(=O)c1cc(OC)c2oc(C)c(C)c2c1`: the melting point was 67 to 68 °C.
Next, `CC(C)(C)c1nc2cc(N3CCCC3)c([N+](=O)[O-])cc2s1`: 115 to 117 °C; `O[C@H]1[C@H](O)CS[C@H]1n1cnc2c(Cl)nc(Cl)nc21`: 198 to 200 °C.
Next, `CN1CC(C(O)C(O)C(O)CO)OC1=C(C#N)C=C1Nc2ccccc2C1=O` (configuration not stated): 237 °C; `CC(C)(C)C(=NO)Nc1ccc(Cl)nn1`: 128 to 130 °C.
Regarding `COc1ccc2c(c1)cc(Cc1cc3cccc(OC)c3n1S(=O)(=O)c1ccccc1)n2S(=O)(=O)c1ccccc1`, the melting point was 168 to 170 °C.
Next, `CC(=N)NC(=O)Nc1ccc(C)cc1`: 210 to 212 °C.
In turn, `O=C(Nc1ccc2oc3c(c2c1)CCCC3)C12CC3CC(CC(C3)C1)C2` yielded a melting point of 247 to 248 °C.
With `CCOc1n[nH]c(=O)n1C1CC1`, the melting point lay within 144 to 145 °C.
Consider `CNc1cnn(-c2ccc(F)cc2)c(=O)c1-c1cccc(C(F)(F)F)c1`, for which the melting point lay in the range of 161 to 162 °C.
The compound `CCOC(=O)c1cnc2cc(NC(C)=O)ccc2c1O` displayed a melting point of 295 to 300 °C.
As to `CC(=O)NC(CSC(=O)C(C)C)C(=O)NCCSC(C)=O` (configuration not stated), the melting point fell in the range of 116 to 118 °C.
With `Cc1oc(-c2ccco2)nc1/C=C/c1ccc(C=CC=C2OC(=O)NC2=O)cc1` the figure was 290 to 291 °C; with `CCCn1nc2c(=O)[nH]c3ccccc3c2c1N`, 266 to 268 °C.
In turn, `O=C(O)CCCOn1nnc2ccc(Cn3ccnc3)cc21` came in with a melting point of 170 °C.
With `CC(C)(C)OC(=O)NC1(CCC(=O)O)CC=CO1` (configuration not stated) the figure was 99 to 101 °C; with `CCS(=O)(=O)Nc1cccc(C)c1C(N)c1cccn2c(C)c(C)nc12` (configuration not stated), 240 to 242 °C.
With `CCCc1nc(OC)c(NC(=O)N2CCN(c3cc(C)cc(C)c3)CC2)cc1C(=O)NC(C)C(=O)Nc1cc(CO)cc(Nc2c3ccccc3nc3ccccc23)c1` (configuration not stated) the figure was 195 to 197 °C.
With `Cc1cc2c([nH]1)CC(c1ccccc1)CC2=O` (configuration not stated) the figure was 203 to 205 °C; with `O=C1OC(=O)c2cc3cc(O)ccc3cc21`, 266 °C.
In turn, `CC(=O)N(CC(C)Cl)c1c(C)cccc1C` (configuration not stated) registered a melting point of 41 to 42 °C.
With `COc1cc(-n2cnc3cc(-c4ccc(Cl)cc4)sc3c2=O)ccc1OC[C@H](O)C1CC1` the figure was 178 to 179 °C; with `COc1cc(C(O)P(=O)(OC)OC)cc(OC)c1OC` (configuration not stated), 103 to 104 °C.
`Cc1cc(O)cc(N(C)C)c1` returned a melting point of 67 to 68 °C.
As for `COC(=O)C1Cc2c(C)ccc(C)c2N1` (configuration not stated), the melting point was 80 °C.
Next, `CCCCCCOc1ccccc1C(=O)CCCCC(=O)O`: 64 to 65 °C.
The compound `COC(=O)c1ccc2c(c1)Sc1cc(F)ccc1C=C2` registered a melting point of 132 to 135 °C.
With `CCCCCC1C=CC(c2ccc(OC)cc2)=CC1` (configuration not stated) the figure was 55 °C; with `CN(C)n1cc(C(=O)NCc2ccc(Cl)cc2)c(=O)c2ccccc21`, 170 to 172 °C; with `COc1cc2ncnc(N3CCN(C(=S)NC4CCOC4=O)CC3)c2cc1OC` (configuration not stated), 147 to 148 °C.
With `N#Cc1ccc2c([N+](=O)[O-])cc3c(c2c1)C(CCl)CN3` (configuration not stated) the figure was 231 to 234 °C.
In the case of `CC(=O)N1CCCC1c1ccnc(-c2nc(=O)c3ccccc3s2)c1` (configuration not stated), the melting point was 206 to 207 °C.
As for `CCOC(=O)/C=C(\C)c1cccc([N+](=O)[O-])c1`, the melting point fell in the range of 43 to 44 °C.
With `O=C(Nc1cccnc1)N1CCc2ccc(Cl)c(Cl)c21` the figure was 178 to 180 °C; with `COc1ccccc1N1CCN(CCOc2ccc(-c3cn4cccnc4n3)cc2)CC1`, 150 to 152 °C; with `CSc1cn(C)c2cc(C)sc2c1=O`, 139 to 142 °C.
Next, `CC(=O)N[C@@H](CCc1ccc([N+](=O)[O-])cc1)C(=O)O`: 211 to 213 °C.
